Measurements published in the NIST ThermoML archive (doi:10.1021/je800972b).
Numbers after ± are expanded uncertainties. Blank lines part the entries; values can stand above or below the molecule they belong to.

Assays:
[1] = 298.15 K; 101.33 kPa; Liquid
[2] = xn = mol fraction of the nth substance listed; conditions: 298.15 K, 101 kPa, Liquid, Vibrating tube method

- mass density [1]: 800.61 ± 0.23 kg/m3
SMILES: CCCO [propan-1-ol]

SMILES: Cc1ccccc1 [toluene]
- mass density [1]: 862.23 ± 0.18 kg/m3

SMILES: C=COCCC [propyl vinyl ether] + Cc1ccccc1
- mass density ([2]; x1 = 0.0494): 857.3 ± 0.22 kg/m3
- mass density ([2]; x1 = 0.1002): 852.46 ± 0.22 kg/m3
- mass density ([2]; x1 = 0.1995): 843.05 ± 0.22 kg/m3
- mass density ([2]; x1 = 0.2999): 833.4 ± 0.22 kg/m3
- mass density ([2]; x1 = 0.3993): 823.66 ± 0.22 kg/m3
- mass density ([2]; x1 = 0.5002): 813.73 ± 0.22 kg/m3
- mass density ([2]; x1 = 0.5999): 803.77 ± 0.22 kg/m3
- mass density ([2]; x1 = 0.6998): 793.65 ± 0.22 kg/m3
- mass density ([2]; x1 = 0.7999): 783.69 ± 0.22 kg/m3
- mass density ([2]; x1 = 0.8993): 773.56 ± 0.22 kg/m3
- mass density ([2]; x1 = 0.95): 768.31 ± 0.22 kg/m3

SMILES: C=COCCC [propyl vinyl ether]
- mass density [1]: 762.69 ± 0.26 kg/m3
